Experimental data: the supplement of paper PMC10307832

Key:
Assay in all cases: relative viability (nuclei count vs DMSO), 5 days (fraction); higher = more cells survive
Salubrinal + OSI-027 = compound: O=C(/C=C/c1ccccc1)NC(NC(=S)Nc1cccc2cccnc12)C(Cl)(Cl)Cl [Salubrinal] + COc1cccc2cc(-c3nc([C@H]4CC[C@H](C(=O)O)CC4)n4ncnc(N)c34)[nH]c12 [OSI-027] (partner 0.5 µM)
Outline: (§1)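 Five library-drug doses in √10 steps were combined with a fixed anchor-drug dose, or a single drug was given alone, by pin tool to lung cancer cell lines in 1536-well plates the day after seeding. Nuclei were stained and counted after 5 days. Relative viability is the nuclei count in treated wells over that in vehicle wells, taken as the median of duplicate plates.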

[1] = compound: Cc1ccc2nc(NCCN)c3ncc(C)n3c2c1 + Nc1nc2[nH]cc(CCc3ccc(C(=O)N[C@@H](CCC(=O)O)C(=O)O)cc3)c2c(=O)[nH]1 [Pemetrexed] (partner 0.2 µM)
Outline: as §1

Salubrinal + Decitabine = compound: O=C(/C=C/c1ccccc1)NC(NC(=S)Nc1cccc2cccnc12)C(Cl)(Cl)Cl [Salubrinal] + Nc1ncn([C@H]2C[C@H](O)[C@@H](CO)O2)c(=O)n1 [Decitabine] (partner 2 µM)
Outline: as §1

Salubrinal + Olaparib = compound: O=C(/C=C/c1ccccc1)NC(NC(=S)Nc1cccc2cccnc12)C(Cl)(Cl)Cl [Salubrinal] + O=C(c1cc(Cc2n[nH]c(=O)c3ccccc23)ccc1F)N1CCN(C(=O)C2CC2)CC1 [Olaparib] (partner 8 µM)
Outline: as §1

Row | Cell Line | relative viability (Salubrinal + OSI-027; first compound 0.08 µM) | relative viability (Salubrinal + OSI-027; first compound 0.253 µM) | relative viability (Salubrinal + OSI-027; first compound 0.8 µM) | relative viability (Salubrinal + OSI-027; first compound 2.53 µM) | relative viability (Salubrinal + OSI-027; first compound 8 µM) | relative viability ([1]; first compound 0.04 µM) | relative viability ([1]; first compound 0.1265 µM) | relative viability ([1]; first compound 0.4 µM) | relative viability ([1]; first compound 1.265 µM) | relative viability ([1]; first compound 4 µM) | relative viability (Salubrinal + Decitabine; first compound 0.08 µM) | relative viability (Salubrinal + Decitabine; first compound 0.253 µM) | relative viability (Salubrinal + Decitabine; first compound 0.8 µM) | relative viability (Salubrinal + Decitabine; first compound 2.53 µM) | relative viability (Salubrinal + Decitabine; first compound 8 µM) | relative viability (Salubrinal + Olaparib; first compound 0.08 µM) | relative viability (Salubrinal + Olaparib; first compound 0.253 µM) | relative viability (Salubrinal + Olaparib; first compound 0.8 µM) | relative viability (Salubrinal + Olaparib; first compound 2.53 µM) | relative viability (Salubrinal + Olaparib; first compound 8 µM)
1 | LXF-289 | 0.784 | 0.647 | 0.953 | 0.847 | 0.69 | 0.905 | 0.876 | 0.87 | 0.865 | 0.933 | 0.338 | 0.382 | 0.357 | 0.43 | 0.405 | 1.27 | 0.918 | 1.25 | 1.14 | 1.07
2 | H3255 | 0.689 | 0.553 | 0.748 | 0.603 | 0.603 | 0.573 | 0.568 | 0.536 | 0.557 | 0.525 | 0.703 | 0.649 | 0.774 | 0.591 | 0.558 | 0.618 | 0.62 | 0.595 | 0.526 | 0.569
3 | 201T | 0.933 | 0.799 | 0.863 | 0.782 | 0.732 | 0.372 | 0.321 | 0.323 | 0.276 | 0.343 | 0.918 | 0.815 | 0.859 | 0.84 | 0.83 | 0.866 | 0.61 | 0.861 | 0.809 | 0.824
4 | NCI-H2126 | 0.7 | 0.721 | 0.725 | 0.695 | 0.659 | 0.851 | 0.699 | 0.659 | 0.708 | 0.59 | 0.605 | 0.547 | 0.589 | 0.563 | 0.559 | 1.01 | 0.754 | 0.941 | 0.88 | 0.951
5 | HOP-62 | 0.819 | 0.765 | 1.11 | 0.849 | 0.714 | 0.298 | 0.303 | 0.348 | 0.352 | 0.339 | 0.192 | 0.206 | 0.196 | 0.187 | 0.224 | 0.318 | 1.34 | 0.943 | 0.456 | 0.386
6 | NCI-H520 | 0.334 | 0.22 | 0.265 | 0.307 | 0.337 | 0.655 | 0.62 | 0.651 | 0.687 | 0.574 | 0.551 | 0.579 | 0.575 | 0.501 | 0.576 | 0.334 | 0.361 | 0.325 | 0.322 | 0.338
7 | NCI-H1755 | 0.748 | 0.803 | 0.795 | 0.696 | 0.633 | 0.446 | 0.408 | 0.411 | 0.437 | 0.456 | 0.759 | 0.686 | 0.744 | 0.725 | 0.68 | 1.01 | 0.937 | 0.922 | 0.857 | 0.893
8 | NCI-H2023 | 0.442 | 0.354 | 0.406 | 0.333 | 0.268 | 0.254 | 0.241 | 0.235 | 0.503 | 0.171 | 0.238 | 0.219 | 0.236 | 0.246 | 0.221 | 0.472 | 0.428 | 0.435 | 0.373 | 0.524
9 | NCI-H2009 | 0.63 | 0.613 | 0.659 | 0.6 | 0.498 | 1.02 | 0.985 | 0.966 | 0.951 | 0.926 | 0.414 | 0.396 | 0.426 | 0.384 | 0.384 | 0.758 | 0.581 | 0.547 | 0.685 | 0.656
